Reference: ChEMBL document CHEMBL1153069, “Isolation, enzyme-bound structure and antibacterial activity of platencin A1 from Streptomyces platensis” (Bioorg Med Chem Lett, 2009)
≈ marks a conversion by molar mass, not a printed value. Calls of active or inactive are those of the source. The calls are words filed in the database; no cut-off is given here.

How the values were obtained:
[1] = system: Staphylococcus aureus; assay: Inhibition of FAS2 in Staphylococcus aureus assessed as inhibition of fatty acid synthesis at 167 ug/ml
[2] = system: Staphylococcus aureus; assay: Antibacterial activity against Staphylococcus aureus Smith at 64 ug/mL; type: functional, organism-based
[3] = system: Enterococcus faecalis; assay: Antibacterial activity against Enterococcus faecalis CL8516 at 64 ug/mL; type: functional, organism-based
[4] = system: Streptococcus pneumoniae; assay: Antibacterial activity against Streptococcus pneumoniae CL2883 at 64 ug/mL; type: functional, organism-based
[5] = Inhibition of FAS2 in Staphylococcus aureus assessed as inhibition of fatty acid synthesis by scintillation counting
[6] = Inhibition of FabH in Staphylococcus aureus assessed as inhibition of fatty acid synthesis
[7] = system: Staphylococcus aureus; assay: Antibacterial activity against Staphylococcus aureus assessed as minimum concentration required to differential zone of clearance between antisense plate compared to control; type: functional
[8] = system: Staphylococcus aureus; assay: Antibacterial activity against Staphylococcus aureus Smith; type: functional
[9] = system: Enterococcus faecalis; assay: Antibacterial activity against Enterococcus faecalis CL8516; type: functional
[10] = system: Streptococcus pneumoniae; assay: Antibacterial activity against Streptococcus pneumoniae CL2883; type: functional
[11] = Inhibition of Escherichia coli FabF C163F

SMILES: C=C1C[C@@]23C=CC(=O)[C@@](C)(CCC(=O)Nc4c(O)ccc(C(=O)OC)c4O)C2C[C@@H]1C[C@H]3O (stereo partly drawn)
- Activity [1]: inactive
- Activity [2]: inactive
- Activity [3]: inactive
- Activity [4]: inactive

SMILES: C=C1C[C@@]23C=CC(=O)[C@@](C)(CCC(=O)Nc4c(O)ccc(C(=O)O)c4O)C2C[C@@H]1C[C@H]3O (stereo partly drawn)
- IC50 [5]: 7.12 µg/mL (≈ 16.1 µM)
- IC50 [6]: 15 µg/mL (≈ 34 µM)
- Activity [7]: 20 µg/mL
- MIC [8]: 32 µg/mL (≈ 72.5 µM)
- MIC [9]: 8 µg/mL (≈ 18.1 µM)
- MIC [10]: > 64 µg/mL

SMILES: CC12C[C@@]34C=CC(=O)[C@@](C)(CCC(=O)Nc5c(O)ccc(C(=O)O)c5O)C3[C@H](CC1C4)O2 (stereo partly drawn) [PLATENSIMYCIN]
- IC50 [5]: 0.5 µg/mL (≈ 1.13 µM)

SMILES: C=C1C[C@@]23C=CC(=O)[C@@](C)(CCC(=O)OC)C2C[C@@H]1C[C@H]3O (stereo partly drawn)
- Activity [1]: inactive
- Activity [2]: inactive
- Activity [3]: inactive
- Activity [4]: inactive

SMILES: C=C1C[C@@]23C=CC(=O)[C@@](C)(CCC(=O)Nc4c(O)ccc(C(=O)O)c4O)[C@@H]2C[C@@H]1CC3 [PLATENCIN]
- IC50 [5]: 12 µg/mL (≈ 28.2 µM)
- Activity [7]: 0.2 µg/mL
- IC50 [11]: 113 nM
